From ChEMBL document CHEMBL1123222, “Inactivation of gamma-aminobutyric acid aminotransferase by (S,E)-4-amino-5-fluoropent-2-enoic acid and effect on the enzyme of (E)-3-(1-aminocyclopropyl)-2-propenoic acid” (J Med Chem, 1986)
pKi: −log10 of the molar value.

Legend:
[1] = Michaelis-Menten constant was determined; assay type: ADME
[2] = Maximal rate constant was determined; assay type: ADME
[3] = target: 4-aminobutyrate aminotransferase, mitochondrial (Sus scrofa) (UniProt P80147); assay: Compound was tested for inactivation of Gamma-amino-N-butyrate transaminase in pig brain at pH of 6.5
[4] = target: T1, 4-aminobutyrate aminotransferase, mitochondrial (Sus scrofa, UniProt P80147); assay: Compound was tested for inhibitory constant of Gamma-amino-N-butyrate transaminase in pig brain at pH of 6.5
[5] = target: 4-aminobutyrate aminotransferase, mitochondrial (Sus scrofa) (UniProt P80147); assay: Compound was tested for inactivation of Gamma-amino-N-butyrate transaminase in pig brain at pH of 8.5 and 25 degree C
[6] = target: T1, 4-aminobutyrate aminotransferase, mitochondrial; assay: Compound was tested for inhibitory constant of Gamma-amino-N-butyrate transaminase in pig brain at pH of 8.5 and 25 degree C

T1 sequence (P80147 whole entry): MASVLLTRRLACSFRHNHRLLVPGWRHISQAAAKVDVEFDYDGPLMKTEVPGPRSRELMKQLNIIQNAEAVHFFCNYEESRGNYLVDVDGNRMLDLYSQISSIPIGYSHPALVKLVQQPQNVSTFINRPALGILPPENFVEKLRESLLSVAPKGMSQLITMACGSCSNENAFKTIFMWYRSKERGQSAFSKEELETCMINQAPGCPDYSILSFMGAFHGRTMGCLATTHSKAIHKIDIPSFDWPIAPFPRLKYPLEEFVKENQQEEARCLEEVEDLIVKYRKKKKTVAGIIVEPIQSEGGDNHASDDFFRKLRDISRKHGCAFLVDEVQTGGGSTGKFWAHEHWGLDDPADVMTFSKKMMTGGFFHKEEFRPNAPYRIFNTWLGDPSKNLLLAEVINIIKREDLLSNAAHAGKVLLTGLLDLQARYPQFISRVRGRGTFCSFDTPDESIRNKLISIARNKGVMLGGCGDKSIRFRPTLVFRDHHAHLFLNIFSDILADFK
Sequence of 4-aminobutyrate aminotransferase, mitochondrial (Sus scrofa) (P80147 whole entry): as above

Km [1] [µM]	Vmax [2] [µM/min/mg]	SMILES	K inact [3] [min⁻¹]	pKi [4]	K inact [5] [min⁻¹]	pKi [6]
1100	0.14	NCCCC(=O)O [GAMMA-AMINOBUTYRIC ACID]	–	–	–	–
–	–	NC(/C=C/C(=O)O)CF (stereo not given)	0.061	2.70	–	–
1300	0.35	NC/C=C/C(=O)O [t-4-AMINOCROTONIC ACID (TACA)]	–	–	–	–
–	–	NC(CF)CCC(=O)O (stereo not given)	0.31	0.98	0.5	3.40
